Our source for the IC50 and activity values is US20230116972A1, “CD38 MODULATORS AND METHODS OF USE THEREOF” (Cytokinetics, Inc., priority 2021, published 2023).

For orientation: IC50 means the concentration at which inhibition is half-maximal.

The target in one data set is T1, human CD38 (Homo sapiens, UniProt P28907).
T1 sequence (P28907 1-300): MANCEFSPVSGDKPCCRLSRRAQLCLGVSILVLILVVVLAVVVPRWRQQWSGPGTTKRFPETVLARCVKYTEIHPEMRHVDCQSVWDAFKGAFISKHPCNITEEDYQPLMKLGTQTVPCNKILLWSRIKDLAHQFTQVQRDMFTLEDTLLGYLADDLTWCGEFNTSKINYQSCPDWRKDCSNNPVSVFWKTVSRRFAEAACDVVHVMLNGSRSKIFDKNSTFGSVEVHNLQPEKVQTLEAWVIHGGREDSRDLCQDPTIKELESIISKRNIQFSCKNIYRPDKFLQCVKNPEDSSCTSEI
The data set can be described thus: human recombinant CD38 enzyme assay (hydrolysis of NAD+). Format: biochemical. Particulars: human recombinant CD38, 0.4 nM enzyme, 62.5 μM NAD+; read-out: hCD38 BioChem IC50. The method, boiled down:
(§1)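 Cell-free recombinant enzyme, NAD+ substrate, 60 min at RT. Stop/detect: ethanol/ADH plus semicarbazide and a CD38 inhibitor (15 min), then NaOH, then resazurin/diaphorase (15 min). Remaining NAD+ read as resorufin fluorescence, Ex/Em 540/590 nm. Inhibition fitted from dose responses.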

The target in a further data set is T2, mouse CD38 (Mus musculus, UniProt P56528).
T2 sequence (P56528 1-304): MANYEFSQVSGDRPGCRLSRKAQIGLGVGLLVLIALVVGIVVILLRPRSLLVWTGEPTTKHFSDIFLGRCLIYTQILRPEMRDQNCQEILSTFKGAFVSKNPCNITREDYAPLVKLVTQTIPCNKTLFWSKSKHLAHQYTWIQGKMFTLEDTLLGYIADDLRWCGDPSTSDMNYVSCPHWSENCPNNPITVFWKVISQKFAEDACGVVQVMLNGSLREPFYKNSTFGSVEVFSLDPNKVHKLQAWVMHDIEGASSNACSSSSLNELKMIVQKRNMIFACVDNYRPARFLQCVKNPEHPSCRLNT
The data set can be described thus: mouse recombinant CD38 enzyme assay (hydrolysis of NAD+). It is filed as biochemical. Particulars: read-out: mCD38 BioChem IC50. The method, boiled down:
as §1

Data set [1] deals with T3, endogenous CD38 in HL60 cells (Homo sapiens, UniProt P28907).
T3 construct: endogenous in cells; host or cells: HL60 (leukemic cells, treated with all-trans retinoic acid)
T3 sequence (P28907 1-300): T1 sequence (P28907 1-300)
The data set can be described thus: cellular CD38 assay in HL60 cells (cellular NAD levels). It is filed as cell-based. Particulars: all-trans retinoic acid, 24 hours, read-out: hCD38 HL60 ATRA NAD Cell Diaphorase IC50. In outline:
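HL60 cells (20000/well) were treated with compound in DMSO for 24 h. Cellular NAD was then measured by an enzymatic cycling mix (alcohol dehydrogenase, diaphorase, 40 uM resazurin, 10 uM FMN, 3% ethanol, Triton X-100, pH 8.4).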

The target in the next data set is T4, CYP2C9 (Homo sapiens, UniProt P11712).
T4 construct: from tissue; host or cells: human liver microsomes (pooled in the time-dependent assay)
The data set can be described thus: direct inhibition of CYP450 in human liver microsomes. Format: in vitro ADME. Particulars: for activity at 3 µM / activity at 10 µM / activity at 50 µM: % of non-inhibited control, read-out: CYP2C9 T0 % activity; for IC50: estimated from 3, 10, 50 uM, read-out: CYP2C9 T0 estimated IC50. How it is done: (§2) Direct inhibition: […] A Perspective of the Pharmaceutical Research and Manufacturers of America”, Drug Metabolism and Disposition, 37 (7): 1355, 2009). For 3A4, the % activity was measured using both midazolam and testosterone as probes. Each compound at 3, 10, and 50 μM was incubated with HLM, NADPH and CYP isoenzyme specific probe substrates at 37° C. Inhibition of the probe substrate metabolism was quantified using LC/MS/MS. […] Known chemical inhibitors specific for the individual CYP isoenzymes were evaluated in parallel as positive controls and these compounds produced CYP inhibition consistent with published results (Walsky & Obach RS. “Validated assays for human cytochrome P450 activities”. Drug Metab Dispos. 32(6):647-60, 2004). Note that, in Tables 6 and 7, the “Compound No” corresponds to the compound numbers in Table 1.

In another data set the target is T5, CYP3A4 (Homo sapiens, UniProt P08684).
T5 construct: from tissue; host or cells: human liver microsomes (pooled in the time-dependent assay)
The data set can be described thus: direct inhibition of CYP450 in human liver microsomes (midazolam and testosterone probes). Format: in vitro ADME. How it is done: as §2

[2] abbreviates: midazolam probe, read-out: CYP3A4-M T0 % activity.
[3] abbreviates: testosterone probe, read-out: CYP3A4-T T0 % activity.
The mark [4] stands for this setting: midazolam probe, read-out: CYP3A4-M T0 estimated IC50.
The mark [5] stands for this setting: testosterone probe, read-out: CYP3A4-T T0 estimated IC50.

Where two headings read alike, the source gives them in different places. Bounds are passed on as bounds.

T5 sequence (P08684 whole entry): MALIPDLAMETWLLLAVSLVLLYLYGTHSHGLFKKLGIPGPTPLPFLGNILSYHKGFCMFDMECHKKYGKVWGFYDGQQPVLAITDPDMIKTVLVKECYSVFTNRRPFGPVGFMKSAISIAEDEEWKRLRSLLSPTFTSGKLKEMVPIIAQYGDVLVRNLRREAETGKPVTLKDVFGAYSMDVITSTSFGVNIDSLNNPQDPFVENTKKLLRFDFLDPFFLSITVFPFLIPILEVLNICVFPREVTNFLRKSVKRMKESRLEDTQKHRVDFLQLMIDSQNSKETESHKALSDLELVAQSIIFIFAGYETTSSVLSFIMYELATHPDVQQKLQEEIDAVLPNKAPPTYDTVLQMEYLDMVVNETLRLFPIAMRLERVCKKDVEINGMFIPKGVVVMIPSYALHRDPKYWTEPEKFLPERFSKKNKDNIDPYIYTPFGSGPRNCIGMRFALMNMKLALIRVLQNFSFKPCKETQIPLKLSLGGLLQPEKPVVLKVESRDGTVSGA
T4 sequence (P11712 whole entry): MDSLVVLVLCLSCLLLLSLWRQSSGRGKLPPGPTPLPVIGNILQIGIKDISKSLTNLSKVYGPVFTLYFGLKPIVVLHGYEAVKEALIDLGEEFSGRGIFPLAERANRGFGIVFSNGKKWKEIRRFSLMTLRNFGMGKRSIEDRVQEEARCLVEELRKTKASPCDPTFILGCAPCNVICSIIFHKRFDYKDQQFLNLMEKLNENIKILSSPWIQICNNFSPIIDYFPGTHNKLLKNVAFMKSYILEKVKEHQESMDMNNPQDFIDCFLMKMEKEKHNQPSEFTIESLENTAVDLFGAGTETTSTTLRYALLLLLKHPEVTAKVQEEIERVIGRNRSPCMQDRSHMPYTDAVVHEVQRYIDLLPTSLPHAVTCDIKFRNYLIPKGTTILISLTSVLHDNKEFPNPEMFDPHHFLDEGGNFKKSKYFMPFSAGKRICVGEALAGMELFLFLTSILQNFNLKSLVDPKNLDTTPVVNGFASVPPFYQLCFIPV

Take `CO[C@H]1CC[C@H](NC(=O)c2nccc(-c3cncn3C)n2)CC1` [Compound 148, N-((1r,4r)-4-methoxycyclohexyl)-4-(1-methyl-1H-imidazol-5-yl)pyrimidine-2-carboxamide]: the IC50 came to 70 nM at human CD38, 23 nM on mouse CD38 and 1890 nM in data set [1].
As for `CO[C@H]1CC[C@H](NC(=O)c2cc(C3CCOCC3)nc(-c3cncn3C)n2)CC1` [Compound 199, N-((1r,4r)-4-methoxycyclohexyl)-2-(1-methyl-1H-imidazol-5-yl)-6-(tetrahydro-2H-pyran-4-yl)pyrimidine-4-carboxamide], the IC50 on human CD38 was 15.2 nM; on mouse CD38 it was 3.1 nM; in data set [1] it was 2630 nM; on CYP2C9, > 50 µM; at CYP3A4 (setting [4]), > 50 µM; on CYP3A4 (setting [5]), > 50 µM. Moreover, the values for the activity at 3 µM at CYP2C9, at CYP3A4 (setting [2]) and on CYP3A4 (setting [3]) were 101%, 93% and 98%, respectively. The activity at 10 µM at CYP2C9 was determined as 96%; at CYP3A4 (setting [2]), 92%; on CYP3A4 (setting [3]) it was 96%. Further, the activity at 50 µM on CYP2C9 amounted to 69%; on CYP3A4 (setting [2]), 79%; on CYP3A4 (setting [3]), 79%.
As for `CO[C@H]1CC[C@H](NC(=O)c2cc(C3(C)COC3)nc(-c3cncn3C)n2)CC1` [Compound 295, N-((1r,4r)-4-methoxycyclohexyl)-2-(1-methyl-1H-imidazol-5-yl)-6-(3-methyloxetan-3-yl)pyrimidine-4-carboxamide], the IC50 on human CD38 is 18.5 nM; on mouse CD38, 3.6 nM; in data set [1], 2310 nM; at CYP2C9, > 50 µM; on CYP3A4 (setting [4]), > 50 µM; on CYP3A4 (setting [5]), > 50 µM. Besides, the figures for the activity at 3 µM at CYP2C9, on CYP3A4 (setting [2]) and on CYP3A4 (setting [3]) were 91%, 92% and 103%, respectively. The activity at 10 µM was found to be 85% on CYP2C9, 93% on CYP3A4 (setting [2]) and 106% on CYP3A4 (setting [3]). Moreover, the results for the activity at 50 µM at CYP2C9, on CYP3A4 (setting [2]) and on CYP3A4 (setting [3]) were 63%, 101% and 86%, respectively.
For the molecule `Cn1cncc1-c1ccnc(C(=O)N[C@H]2CC[C@H](O)CC2)n1` [Compound 256, N-((1r,4r)-4-hydroxycyclohexyl)-4-(1-methyl-1H-imidazol-5-yl)pyrimidine-2-carboxamide], the IC50 at human CD38 was 68.4 nM; on mouse CD38 it was 22.5 nM; in data set [1], 3610 nM; on CYP2C9, > 50 µM; on CYP3A4 (setting [4]) it was > 50 µM; at CYP3A4 (setting [5]) it was > 50 µM. Moreover, the activity at 3 µM on CYP2C9 was found to be 90%; at CYP3A4 (setting [2]), 88%; on CYP3A4 (setting [3]) it was 96%. For the same molecule, the activity at 10 µM worked out at 94% on CYP2C9, 97% on CYP3A4 (setting [2]) and 99% at CYP3A4 (setting [3]). Further, the activity at 50 µM at CYP2C9 was found to be 86%; on CYP3A4 (setting [2]), 82%; at CYP3A4 (setting [3]), 95%.
With `CO[C@H]1CC[C@H](NC(=O)c2cc(C3CCC(F)(F)CC3)nc(-c3cncn3C)n2)CC1` [Compound 289, 6-(4,4-difluorocyclohexyl)-N-((1r,4r)-4-methoxycyclohexyl)-2-(1-methyl-1H-imidazol-5-yl)pyrimidine-4-carboxamide], the IC50 is 7 nM at human CD38; 1 nM on mouse CD38; 1900 nM in data set [1]; < 50 µM on CYP2C9; > 50 µM at CYP3A4 (setting [4]); > 50 µM on CYP3A4 (setting [5]). Besides, the activity at 3 µM came to 96% at CYP2C9, 147% on CYP3A4 (setting [2]) and 100% at CYP3A4 (setting [3]). In addition, the figures for the activity at 10 µM at CYP2C9, on CYP3A4 (setting [2]) and at CYP3A4 (setting [3]) were 81%, 148% and 97%, respectively. The results for the activity at 50 µM at CYP2C9, at CYP3A4 (setting [2]) and at CYP3A4 (setting [3]) were 49%, 96% and 72%, respectively.
Regarding `Cn1cncc1-c1ccnc(C(=O)Nc2ccc(C(C)(C)O)nc2)n1` [Compound 250, N-(6-(2-hydroxypropan-2-yl)pyridin-3-yl)-4-(1-methyl-1H-imidazol-5-yl)pyrimidine-2-carboxamide], the IC50 is 14.1 nM at human CD38; 32 nM on mouse CD38; 924 nM in data set [1]; > 50 µM at CYP2C9; > 50 µM on CYP3A4 (setting [4]); > 50 µM at CYP3A4 (setting [5]). Also, the figures for the activity at 3 µM at CYP2C9, at CYP3A4 (setting [2]) and at CYP3A4 (setting [3]) were 99%, 96% and 104%, respectively. The activity at 10 µM at CYP2C9 was determined as 94%; on CYP3A4 (setting [2]) it was 89%; on CYP3A4 (setting [3]), 106%. In addition, the activity at 50 µM stood at 89% on CYP2C9, 73% at CYP3A4 (setting [2]) and 85% on CYP3A4 (setting [3]).
Turning to `CC(C)(O)c1ccc(NC(=O)c2nccc(-n3ccnc3)n2)cn1` [Compound 249, N-(6-(2-hydroxypropan-2-yl)pyridin-3-yl)-4-(1H-imidazol-1-yl)pyrimidine-2-carboxamide], the IC50 at human CD38 is 11.9 nM; on mouse CD38, 45.2 nM; in data set [1], 838 nM; at CYP2C9, > 50 µM; at CYP3A4 (setting [4]), > 50 µM; on CYP3A4 (setting [5]) it was > 50 µM. The activity at 3 µM came out at 106% on CYP2C9, 108% at CYP3A4 (setting [2]) and 99% at CYP3A4 (setting [3]). Besides, the values for the activity at 10 µM at CYP2C9, at CYP3A4 (setting [2]) and on CYP3A4 (setting [3]) were 103%, 103% and 100%, respectively. Also, the activity at 50 µM on CYP2C9 was found to be 92%; on CYP3A4 (setting [2]) it was 100%; on CYP3A4 (setting [3]), 92%.
